Assay results: PubChem BioAssay (NCI)
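Values below derive from 48-hour exposures of cells grown in 96-well plates, with endpoints linearly interpolated between the two concentrations bracketing the appropriate inhibition level. Here, GI50 denotes the concentration required for 50% inhibition of growth. Definition used: TGI = concentration required for complete inhibition of growth.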

Tests used:
Test in all cases: DTP human tumour cell line panel, 48 h
[1] = test system: 786-0 renal
[2] = test system: A498 renal
[3] = test system: A549 NSCLC
[4] = test system: ACHN renal
[5] = test system: BT-549 breast
[6] = test system: CAKI-1 renal
[7] = test system: CCRF-CEM leukemia
[8] = test system: COLO 205 colon
[9] = test system: DU-145 prostate
[10] = test system: EKVX NSCLC
[11] = test system: HCC-2998 colon
[12] = test system: HCT-116 colon
[13] = test system: HCT-15 colon
[14] = test system: HL-60(TB) leukemia
[15] = test system: HOP-62 NSCLC
[16] = test system: HOP-92 NSCLC
[17] = test system: HS 578T breast
[18] = test system: HT29 colon
[19] = test system: IGROV1 ovarian
[20] = test system: K-562 leukemia
[21] = test system: KM12 colon
[22] = test system: LOX IMVI melanoma
[23] = test system: M14 melanoma
[24] = test system: MALME-3M melanoma
[25] = test system: MCF7 breast
[26] = test system: MDA-MB-231 breast
[27] = test system: MDA-MB-435
[28] = test system: MOLT-4 leukemia
[29] = test system: NCI-H226 lung
[30] = test system: NCI-H23 lung
[31] = test system: NCI-H460 lung
[32] = test system: NCI-H522 lung
[33] = test system: NCI/ADR-RES ovarian
[34] = test system: OVCAR-3 ovarian
[35] = test system: OVCAR-4 ovarian
[36] = test system: OVCAR-5 ovarian
[37] = test system: OVCAR-8 ovarian
[38] = test system: PC-3 prostate
[39] = test system: RPMI-8226 leukemia
[40] = test system: RXF 393 renal
[41] = test system: SF-268 CNS
[42] = test system: SF-295 CNS
[43] = test system: SF-539 CNS
[44] = test system: SK-MEL-2 melanoma
[45] = test system: SK-MEL-28 melanoma
[46] = test system: SK-MEL-5 melanoma
[47] = test system: SK-OV-3 ovarian
[48] = test system: SN12C renal
[49] = test system: SNB-19 CNS
[50] = test system: SNB-75 CNS
[51] = test system: SR leukemia
[52] = test system: SW-620 colon
[53] = test system: T-47D breast
[54] = test system: TK-10 renal
[55] = test system: U251 CNS
[56] = test system: UACC-257 melanoma
[57] = test system: UACC-62 melanoma
[58] = test system: UO-31 renal

## COc1ccc2c(c1)CC[C@@H]1[C@@H]2CC[C@]2(C)C=C(/C=C/C(=O)c3ccccc3)C[C@@H]12
[1]
  GI50: 15.5 µM
  TGI: 29.1 µM
[2]
  GI50: 13.3 µM
  TGI: 26.3 µM
[3]
  GI50: 18.5 µM
  TGI: 40.2 µM
[4]
  GI50: 16.4 µM
  TGI: 31.1 µM
[5]
  GI50: 17.3 µM
  TGI: 32.7 µM
[6]
  GI50: 20.3 µM
  TGI: 38.3 µM
[7]
  GI50: 32.6 µM
  TGI: 84.7 µM
[8]
  GI50: 19.7 µM
  TGI: 40.4 µM
[9]
  GI50: 14.6 µM
  TGI: 28.4 µM
[10]
  GI50: 17.7 µM
  TGI: 32.3 µM
[11]
  GI50: 16.2 µM
  TGI: 31.2 µM
[12]
  GI50: 15.6 µM
  TGI: 29.1 µM
[13]
  GI50: 17.4 µM
  TGI: 34.3 µM
[14]
  GI50: 11.2 µM
  TGI: 32.4 µM
[15]
  GI50: 16.9 µM
  TGI: 31.2 µM
[16]
  GI50: 15.5 µM
  TGI: 29.7 µM
[17]
  GI50: 19 µM
  TGI: 49 µM
[18]
  GI50: 17 µM
  TGI: 35.7 µM
[19]
  GI50: 13.3 µM
  TGI: 27.4 µM
[20]
  GI50: 18.5 µM
  TGI: 46.4 µM
[21]
  GI50: 17.7 µM
  TGI: 39.6 µM
[22]
  GI50: 14.9 µM
  TGI: 29.9 µM
[23]
  GI50: 16.6 µM
  TGI: 34.3 µM
[24]
  GI50: 14 µM
  TGI: 30.1 µM
[25]
  GI50: 18.6 µM
  TGI: 36.3 µM
[26]
  GI50: 17.2 µM
  TGI: 32.1 µM
[27]
  GI50: 18.4 µM
  TGI: 36 µM
[28]
  GI50: 16.5 µM
  TGI: 54.5 µM
[29]
  GI50: 17.1 µM
  TGI: 33.6 µM
[30]
  GI50: 15.4 µM
  TGI: 30.8 µM
[31]
  GI50: 17.2 µM
  TGI: 35.4 µM
[32]
  GI50: 16 µM
  TGI: 32.7 µM
[33]
  GI50: 17.6 µM
  TGI: 35.1 µM
[34]
  GI50: 16.2 µM
  TGI: 31.7 µM
[35]
  GI50: 16.2 µM
  TGI: 31.6 µM
[36]
  GI50: 16.5 µM
  TGI: 30.7 µM
[37]
  GI50: 31.2 µM
  TGI: > 100 µM
[38]
  GI50: 15.4 µM
  TGI: 30.5 µM
[39]
  GI50: 24.3 µM
  TGI: 54.4 µM
[40]
  GI50: 17.5 µM
  TGI: 34.5 µM
[41]
  GI50: 18.2 µM
  TGI: 36.6 µM
[42]
  GI50: 17.5 µM
  TGI: 34 µM
[43]
  GI50: 17.4 µM
  TGI: 32.4 µM
[44]
  GI50: 21 µM
  TGI: 41.5 µM
[45]
  GI50: 16.2 µM
  TGI: 31.7 µM
[46]
  GI50: 14 µM
  TGI: 27.2 µM
[47]
  GI50: 20.8 µM
  TGI: 38.9 µM
[48]
  GI50: 18.5 µM
  TGI: 33.4 µM
[49]
  GI50: 16.8 µM
  TGI: 31.5 µM
[50]
  GI50: 12.2 µM
  TGI: 25.2 µM
[51]
  GI50: 16.6 µM
  TGI: 47.4 µM
[52]
  GI50: 15.4 µM
  TGI: 30.2 µM
[53]
  GI50: 12 µM
  TGI: 30.1 µM
[54]
  GI50: 21.3 µM
  TGI: 39.3 µM
[55]
  GI50: 16.6 µM
  TGI: 31.3 µM
[56]
  GI50: 16.2 µM
  TGI: 34.6 µM
[57]
  GI50: 13.8 µM
  TGI: 27.2 µM
[58]
  GI50: 15.2 µM
  TGI: 30.1 µM

## O=[As]c1ccc(C(=O)c2ccc(Oc3ccccc3)cc2)cc1 (stereo unspecified)
[1]
  GI50: 0.0576 µM
  TGI: 0.166 µM
[2]
  GI50: 0.141 µM
  TGI: 0.295 µM
[3]
  GI50: 0.0465 µM
  TGI: 0.172 µM
[4]
  GI50: 0.0358 µM
  TGI: 0.114 µM
[5]
  GI50: 0.135 µM
  TGI: 0.278 µM
[6]
  GI50: 0.0392 µM
  TGI: 0.12 µM
[7]
  GI50: 0.0191 µM
  TGI: 0.155 µM
[8]
  GI50: 0.0494 µM
  TGI: 0.169 µM
[9]
  GI50: 0.0348 µM
  TGI: 0.123 µM
[10]
  GI50: 0.0688 µM
  TGI: 0.205 µM
[11]
  GI50: 0.0727 µM
  TGI: 0.213 µM
[12]
  GI50: 0.0415 µM
  TGI: 0.152 µM
[13]
  GI50: 0.0362 µM
  TGI: 0.15 µM
[14]
  GI50: 0.119 µM
  TGI: 0.463 µM
[15]
  GI50: 0.0356 µM
  TGI: 0.105 µM
[16]
  GI50: 0.159 µM
  TGI: 0.361 µM
[17]
  GI50: 0.129 µM
[18]
  GI50: 0.0379 µM
  TGI: 0.154 µM
[19]
  GI50: 0.044 µM
  TGI: 0.219 µM
[20]
  GI50: 0.0188 µM
  TGI: 0.117 µM
[21]
  GI50: 0.0532 µM
  TGI: 0.177 µM
[22]
  GI50: 0.0246 µM
  TGI: 0.0796 µM
[23]
  GI50: 0.0695 µM
  TGI: 0.202 µM
[24]
  GI50: 0.068 µM
  TGI: 0.271 µM
[25]
  GI50: 0.0181 µM
  TGI: 0.0903 µM
[26]
  GI50: 0.0547 µM
  TGI: 0.192 µM
[27]
  GI50: 0.0396 µM
  TGI: 0.176 µM
[28]
  GI50: 0.0333 µM
  TGI: 0.19 µM
[29]
  GI50: 0.106 µM
  TGI: 0.226 µM
[30]
  GI50: 0.0751 µM
  TGI: 0.242 µM
[31]
  GI50: 0.0439 µM
  TGI: 0.183 µM
[32]
  GI50: 0.0219 µM
  TGI: 0.0865 µM
[33]
  GI50: 0.0378 µM
  TGI: 0.143 µM
[34]
  GI50: 0.0243 µM
  TGI: 0.0608 µM
[35]
  GI50: 0.0469 µM
  TGI: 0.171 µM
[36]
  GI50: 0.129 µM
  TGI: 0.264 µM
[37]
  GI50: 0.0389 µM
  TGI: 0.146 µM
[38]
  GI50: 0.0349 µM
  TGI: 0.142 µM
[39]
  GI50: 0.0267 µM
  TGI: 0.105 µM
[40]
  GI50: 0.0404 µM
  TGI: 0.143 µM
[41]
  GI50: 0.0344 µM
  TGI: 0.129 µM
[42]
  GI50: 0.15 µM
  TGI: 0.327 µM
[43]
  GI50: 0.066 µM
  TGI: 0.218 µM
[44]
  GI50: 0.118 µM
  TGI: 0.287 µM
[45]
  GI50: 0.0416 µM
  TGI: 0.153 µM
[46]
  GI50: 0.0539 µM
  TGI: 0.174 µM
[47]
  GI50: 0.12 µM
  TGI: 0.249 µM
[48]
  GI50: 0.0407 µM
  TGI: 0.148 µM
[49]
  GI50: 0.0651 µM
  TGI: 0.187 µM
[50]
  GI50: 0.0366 µM
  TGI: 0.15 µM
[51]
  GI50: < 0.0168 µM
  TGI: 0.0736 µM
[52]
  GI50: 0.0248 µM
  TGI: 0.111 µM
[53]
  GI50: 0.0316 µM
  TGI: 0.156 µM
[54]
  GI50: 0.063 µM
  TGI: 0.19 µM
[55]
  GI50: 0.0181 µM
  TGI: 0.0586 µM
[56]
  GI50: 0.0431 µM
  TGI: 0.171 µM
[57]
  GI50: 0.059 µM
  TGI: 0.185 µM
[58]
  GI50: 0.0695 µM
  TGI: 0.208 µM
